Measured values: ChEMBL document CHEMBL3875185, “Structure-anticonvulsant activity studies in the group of (E)-N-cinnamoyl aminoalkanols derivatives monosubstituted in phenyl ring with 4-Cl, 4-CH3 or 2-CH3” (Bioorg Med Chem, 2017)

What was measured:
[1] = target: T1, Adenosine receptor A3 (Homo sapiens) (UniProt P0DMS8); test: Displacement of [125I]AB-MECA from human recombinant adenosine receptor A3 expressed in HEK293 cells at 100 uM measured after 120 mins by scintillation counting method relative to control; assay type: cell-based
T1 sequence (whole entry): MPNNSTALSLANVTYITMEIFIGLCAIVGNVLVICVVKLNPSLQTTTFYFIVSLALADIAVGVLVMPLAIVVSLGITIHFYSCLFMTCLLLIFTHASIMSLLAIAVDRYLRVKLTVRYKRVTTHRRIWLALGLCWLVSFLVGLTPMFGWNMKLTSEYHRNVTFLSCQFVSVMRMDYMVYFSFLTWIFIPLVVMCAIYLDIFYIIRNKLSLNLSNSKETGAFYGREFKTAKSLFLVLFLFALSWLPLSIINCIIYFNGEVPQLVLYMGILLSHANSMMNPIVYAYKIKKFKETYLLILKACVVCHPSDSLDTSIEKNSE

[2] = target: Beta-1 adrenergic receptor (Homo sapiens) (UniProt P08588); test: Displacement of [3H]CGP 12177 from human recombinant beta1 adrenergic receptor expressed in HEK293 cells at 100 uM measured after 60 mins by scintillation counting method relative to control; assay type: cell-based
[3] = target: 5-hydroxytryptamine receptor 7 (Homo sapiens) (UniProt P34969); test: Displacement of [3H]LSD from human recombinant 5HT7 receptor expressed in CHO cells at 100 uM measured after 120 mins by scintillation counting method relative to control; assay type: cell-based
[4] = target: T2, C-X-C chemokine receptor type 2 (Homo sapiens) (UniProt P25025); test: Displacement of [125I]IL-8 from human recombinant CXCR2 expressed in HEK293 cells at 100 uM measured after 60 mins by scintillation counting method relative to control; assay type: cell-based
T2 sequence (whole entry): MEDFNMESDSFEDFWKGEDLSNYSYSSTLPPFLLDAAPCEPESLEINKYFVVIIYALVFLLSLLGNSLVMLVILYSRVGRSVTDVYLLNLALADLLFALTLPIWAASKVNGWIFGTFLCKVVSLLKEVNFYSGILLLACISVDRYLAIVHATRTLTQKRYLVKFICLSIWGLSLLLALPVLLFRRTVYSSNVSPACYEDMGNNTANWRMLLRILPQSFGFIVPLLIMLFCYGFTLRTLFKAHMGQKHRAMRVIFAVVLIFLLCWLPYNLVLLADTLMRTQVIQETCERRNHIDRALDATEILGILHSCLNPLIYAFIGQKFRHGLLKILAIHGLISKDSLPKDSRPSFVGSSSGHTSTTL

[5] = Neurotoxicity in ip dosed mouse; assay type: toxicity, organism-based; conditions: in vivo
[6] = Protection index, ratio of TD50 for neurotoxicity in ip dosed mouse to ED50 for ip dosed 6-Hz induced seizure mouse model at 44 mA; assay type: toxicity, organism-based; conditions: in vivo, read-out: Ratio TD50/ED50
[7] = organism: Rattus norvegicus; test: Displacement of [35S]dATPaS from rat cerebral cortex P2Y receptor at 100 uM measured after 60 mins by scintillation counting method relative to control
[8] = target: Translocator protein (Rattus norvegicus) (UniProt P16257); test: Displacement of [3H]PK 11195 from rat heart peripheral-type benzodiazepine receptor at 100 uM measured after 15 mins by scintillation counting method relative to control
[9] = target: Melanocortin receptor 4 (Homo sapiens) (UniProt P32245); test: Displacement of [125I]NDP-a-MSH from human recombinant MC4 receptor expressed in CHO cells at 100 uM measured after 120 mins by scintillation counting method relative to control; assay type: cell-based
[10] = target: T3, Muscarinic acetylcholine receptor M4 (Homo sapiens) (UniProt P08173); test: Displacement of [3H]4-DAMP from human recombinant M4 receptor expressed in CHO cells at 100 uM measured after 60 mins by scintillation counting method relative to control; assay type: cell-based
T3 sequence (whole entry): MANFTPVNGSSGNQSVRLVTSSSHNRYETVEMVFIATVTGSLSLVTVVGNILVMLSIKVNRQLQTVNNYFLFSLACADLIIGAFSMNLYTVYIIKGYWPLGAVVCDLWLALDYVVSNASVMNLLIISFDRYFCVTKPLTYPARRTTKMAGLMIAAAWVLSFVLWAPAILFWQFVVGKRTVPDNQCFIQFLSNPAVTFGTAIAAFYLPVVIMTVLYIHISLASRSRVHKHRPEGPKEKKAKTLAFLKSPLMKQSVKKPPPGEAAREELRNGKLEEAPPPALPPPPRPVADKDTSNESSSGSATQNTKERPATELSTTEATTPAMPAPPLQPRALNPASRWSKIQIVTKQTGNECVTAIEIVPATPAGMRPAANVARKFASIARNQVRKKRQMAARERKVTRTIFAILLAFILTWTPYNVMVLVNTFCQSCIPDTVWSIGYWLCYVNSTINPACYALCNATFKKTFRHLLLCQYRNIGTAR

[11] = test system: Rattus norvegicus; test: Anticonvulsant activity in po dosed maximal electroshock induced seizure Sprague-Dawley rat model assessed as suppression in hindlimb tonic extension; assay type: functional
[12] = target: Adrenergic receptor alpha-2 (Rattus norvegicus) (UniProt P22086+P19328+P22909); test: Displacement of [3H]RX 821002 from rat cerebral cortex alpha-2 adrenergic receptor at 100 uM measured after 60 mins by scintillation counting method relative to control
[13] = test system: Rattus norvegicus; test: Anticonvulsant activity in ip dosed pentylenetetrazole induced seizure Sprague-Dawley rat model assessed as no observable episode of clonic convulsion of at least 5 secs by measuring time to peak effect; assay type: functional
[14] = Protection index, ratio of TD50 for neurotoxicity in ip dosed Sprague-Dawley rat model to ED50 for ip dosed pentylenetetrazole induced seizure Sprague-Dawley rat model; assay type: toxicity, organism-based; conditions: in vivo, read-out: Ratio TD50/ED50
[15] = target: T4, Adenosine receptor A1 (Homo sapiens) (UniProt P30542); test: Displacement of [3H]DPCPX from human recombinant adenosine receptor A1 expressed in CHO cells at 100 uM measured after 60 mins by scintillation counting method relative to control; assay type: cell-based
T4 sequence (whole entry): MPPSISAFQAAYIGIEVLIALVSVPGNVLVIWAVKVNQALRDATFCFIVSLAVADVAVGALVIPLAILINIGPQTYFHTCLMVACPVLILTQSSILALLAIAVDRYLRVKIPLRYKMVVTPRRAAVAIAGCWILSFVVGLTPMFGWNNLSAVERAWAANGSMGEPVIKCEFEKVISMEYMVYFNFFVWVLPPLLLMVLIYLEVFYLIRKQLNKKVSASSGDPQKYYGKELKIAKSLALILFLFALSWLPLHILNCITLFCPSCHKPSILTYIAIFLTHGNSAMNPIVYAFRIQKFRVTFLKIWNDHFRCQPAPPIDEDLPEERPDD

[16] = organism: Rattus norvegicus; test: Displacement of [35S]TBPS from rat cerebral cortex GABA-gated chloride channel at 100 uM measured after 60 mins by scintillation counting method relative to control

5-hydroxytryptamine receptor 7 (Homo sapiens), sequence (P34969 whole entry): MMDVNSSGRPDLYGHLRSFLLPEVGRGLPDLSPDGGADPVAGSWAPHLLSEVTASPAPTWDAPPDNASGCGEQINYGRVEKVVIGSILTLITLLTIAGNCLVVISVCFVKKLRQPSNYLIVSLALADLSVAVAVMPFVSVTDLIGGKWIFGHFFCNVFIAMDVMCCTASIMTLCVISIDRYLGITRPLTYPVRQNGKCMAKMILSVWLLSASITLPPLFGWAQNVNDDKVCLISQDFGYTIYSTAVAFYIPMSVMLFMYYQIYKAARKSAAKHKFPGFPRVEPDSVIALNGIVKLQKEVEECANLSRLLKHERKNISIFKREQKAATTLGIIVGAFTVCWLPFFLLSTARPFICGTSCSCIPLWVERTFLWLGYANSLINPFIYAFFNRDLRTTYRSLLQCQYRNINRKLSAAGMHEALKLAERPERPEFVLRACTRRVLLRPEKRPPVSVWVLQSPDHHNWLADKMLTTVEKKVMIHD
Beta-1 adrenergic receptor (Homo sapiens), sequence (P08588 whole entry, looked up): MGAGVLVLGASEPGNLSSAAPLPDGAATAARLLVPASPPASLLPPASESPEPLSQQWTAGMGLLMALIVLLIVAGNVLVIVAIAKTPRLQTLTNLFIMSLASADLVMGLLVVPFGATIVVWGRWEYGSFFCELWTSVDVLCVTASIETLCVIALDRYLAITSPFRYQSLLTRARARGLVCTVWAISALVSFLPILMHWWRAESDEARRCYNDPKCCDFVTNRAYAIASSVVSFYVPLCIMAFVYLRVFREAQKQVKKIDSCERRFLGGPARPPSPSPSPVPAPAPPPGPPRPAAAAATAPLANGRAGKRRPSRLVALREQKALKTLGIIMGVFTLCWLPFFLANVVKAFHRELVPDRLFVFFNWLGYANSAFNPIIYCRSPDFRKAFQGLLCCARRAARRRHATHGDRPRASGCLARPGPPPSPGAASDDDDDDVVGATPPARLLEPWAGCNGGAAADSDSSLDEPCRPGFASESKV
Melanocortin receptor 4 (Homo sapiens), sequence (P32245 whole entry): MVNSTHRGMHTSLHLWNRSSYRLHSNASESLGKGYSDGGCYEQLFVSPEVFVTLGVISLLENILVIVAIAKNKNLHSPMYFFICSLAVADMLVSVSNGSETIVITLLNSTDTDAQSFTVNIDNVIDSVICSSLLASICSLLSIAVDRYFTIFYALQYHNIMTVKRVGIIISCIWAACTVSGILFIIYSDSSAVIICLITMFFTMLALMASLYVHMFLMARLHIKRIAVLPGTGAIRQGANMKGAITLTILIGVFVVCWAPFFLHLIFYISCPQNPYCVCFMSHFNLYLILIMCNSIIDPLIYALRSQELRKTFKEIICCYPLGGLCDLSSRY
Translocator protein (Rattus norvegicus), sequence (P16257 whole entry, looked up): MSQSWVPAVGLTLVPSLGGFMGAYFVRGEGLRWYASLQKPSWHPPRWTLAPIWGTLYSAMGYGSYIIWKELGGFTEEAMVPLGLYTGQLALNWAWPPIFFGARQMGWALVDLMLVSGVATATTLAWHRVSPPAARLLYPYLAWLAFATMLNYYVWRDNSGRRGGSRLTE

**Q.** With Cc1ccccc1/C=C/C(=O)N[C@@H](C)CO as the compound, how does the inhibition [1] read?
**A.** The inhibition was 17.1%.

**Q.** What about the inhibition [2] of the same compound?
**A.** Its inhibition is -2.8%.

**Q.** What about the inhibition [3] of the same compound?
**A.** The inhibition was 26.6%.

**Q.** And the inhibition [4]?
**A.** Its inhibition is 21.9%.

**Q.** And the TD50 [5]?
**A.** The TD50 was 150 mg/kg.

**Q.** And the selectivity ratio [6]?
**A.** Its selectivity ratio is 3.55.

**Q.** And the inhibition [7]?
**A.** The inhibition was -6.1%.

**Q.** What about the inhibition [8] of the same compound?
**A.** Its inhibition is 75.8%.

**Q.** What about the inhibition [9] of the same compound?
**A.** Its inhibition is 7.9%.

**Q.** What about the inhibition [10] of the same compound?
**A.** The inhibition was -3.2%.

**Q.** And the ED50 [11]?
**A.** The ED50 was 25.8 mg/kg.

**Q.** What about the inhibition [12] of the same compound?
**A.** The inhibition was 10.8%.

**Q.** And the Time [13]?
**A.** Its Time is 0.25 h.

**Q.** What about the selectivity ratio [14] of the same compound?
**A.** The selectivity ratio was 4.18.

**Q.** What about the inhibition [15] of the same compound?
**A.** Its inhibition is 1.3%.

**Q.** And the inhibition [16]?
**A.** Its inhibition is 17.7%.

**Q.** For CC(O)CNC(=O)/C=C/c1ccc(Cl)cc1 (stereo not drawn), which inhibition [1] is on record?
**A.** Its inhibition is 29.9%.

**Q.** What about the inhibition [2] of the same compound?
**A.** The inhibition was 0.7%.

**Q.** What about the inhibition [3] of the same compound?
**A.** The inhibition was 43.5%.

**Q.** What about the inhibition [4] of the same compound?
**A.** Its inhibition is 27%.

**Q.** And the TD50 [5]?
**A.** The TD50 was 180 mg/kg.

**Q.** And the selectivity ratio [6]?
**A.** The selectivity ratio was 3.51.

**Q.** And the inhibition [7]?
**A.** Its inhibition is 15%.

**Q.** What about the inhibition [8] of the same compound?
**A.** The inhibition was 8.1%.

**Q.** What about the inhibition [9] of the same compound?
**A.** The inhibition was 0.9%.

**Q.** And the inhibition [10]?
**A.** The inhibition was 8.9%.

**Q.** And the ED50 [11]?
**A.** The ED50 was 77.3 mg/kg.

**Q.** What about the inhibition [12] of the same compound?
**A.** Its inhibition is 25.1%.

**Q.** What about the Time [13] of the same compound?
**A.** The Time was 0.5 h.

**Q.** And the selectivity ratio [14]?
**A.** The selectivity ratio was 1.25.

**Q.** And the inhibition [15]?
**A.** Its inhibition is 10%.

**Q.** What about the inhibition [16] of the same compound?
**A.** The inhibition was 22.6%.

**Q.** Which inhibition [1] does the source give for CCC(CO)NC(=O)/C=C/c1ccc(Cl)cc1 (stereo not drawn) here?
**A.** Its inhibition is 52.5%.

**Q.** What about the inhibition [2] of the same compound?
**A.** The inhibition was -2.9%.

**Q.** What about the inhibition [3] of the same compound?
**A.** The inhibition was 16.2%.

**Q.** What about the inhibition [4] of the same compound?
**A.** The inhibition was 27.1%.

**Q.** What about the TD50 [5] of the same compound?
**A.** The TD50 was 196 mg/kg.

**Q.** And the selectivity ratio [6]?
**A.** Its selectivity ratio is 2.12.

**Q.** What about the inhibition [7] of the same compound?
**A.** Its inhibition is 18.1%.

**Q.** And the inhibition [8]?
**A.** The inhibition was 53%.

**Q.** What about the inhibition [9] of the same compound?
**A.** Its inhibition is -3.1%.

**Q.** What about the inhibition [10] of the same compound?
**A.** Its inhibition is 1.7%.

**Q.** What about the ED50 [11] of the same compound?
**A.** Its ED50 is 46.8 mg/kg.

**Q.** And the inhibition [12]?
**A.** Its inhibition is 34.8%.

**Q.** What about the Time [13] of the same compound?
**A.** The Time was 0.5 h.

**Q.** And the selectivity ratio [14]?
**A.** The selectivity ratio was 1.23.

**Q.** What about the inhibition [15] of the same compound?
**A.** The inhibition was -0.4%.

**Q.** What about the inhibition [16] of the same compound?
**A.** The inhibition was 37.2%.
